This passage reports MIC and ED50 results from patent US4180564A, “A-38533 Antibiotics and process for production thereof” (Eli Lilly and Company, priority 1978, dated 1979).

The MIC is the lowest concentration found to suppress growth. Read a low MIC as greater potency. As usually defined, the ED50 is the dose that gives a 50% effect, or the effect in half of the subjects. A higher ED50 goes with weaker potency.

In brackets after ≈: the same amount, converted by molar mass.

For one assay, the system named is Pseudomonas aeruginosa. Nature of the assay: In vitro activity, standard agar-dilution test (MIC). It is filed as cell-based. The text has this:
The A-38533 antibiotics inhibit the growth of certain gram-negative pathogenic organisms, particularly Pseudomonas species. The minimal inhibitory concentrations (MIC's) at which the A-38533 factors A1, A2, B and C inhibit various strains of Pseudomonas aeruginosa and Neisseria gonorrhea, as determined by standard agar-dilution tests, are summarized in Table X.

For another assay, the system named is P. aeruginosa. The assay can be described thus: In vivo antimicrobial activity, P. aeruginosa infection in mice. As to conditions: Pseudomonas aeruginosa, sc. The text has this: The A-38533 antibiotics have shown in vivo antimicrobial activity against experimental bacterial infections. […] Bacteriol. 81, 233-235 (1961)]. The LD50 values in Table XI refer to the infecting challenge of the pathogen, the measure being the number by which the LD50 (ip) of the infecting organism is multiplied.

On to `CC1(C)S[C@@H]2[C@H](NC(=O)C(C(=O)O)c3ccccc3)C(=O)N2[C@H]1C(=O)O` (stereo partly drawn) [Carbenicillin], for which the MIC against Pseudomonas aeruginosa (strain 4276) turned out to be 128 µg/mL (≈ 338 µM); with Pseudomonas aeruginosa (strain PA103), 32 µg/mL (≈ 84.6 µM); with Pseudomonas aeruginosa (strain PI23), 32 µg/mL (≈ 84.6 µM); with Pseudomonas aeruginosa (strain PS9), 32 µg/mL (≈ 84.6 µM); in the assay on Pseudomonas aeruginosa (strain PS15), 16 µg/mL (≈ 42.3 µM); in the assay on Pseudomonas aeruginosa (strain PS25), 64 µg/mL (≈ 169 µM). Besides, the MIC in the assay with Pseudomonas aeruginosa (strain X48) turned out to be 16 µg/mL (≈ 42.3 µM); in the assay with Pseudomonas aeruginosa (strain X239) it was 32 µg/mL (≈ 84.6 µM); in the assay on Pseudomonas aeruginosa (strain X528) it was 16 µg/mL (≈ 42.3 µM). For the same compound, the ED50 was found to be 29.3 mg/kg with P. aeruginosa (Test A, P. aeruginosa X239, SC, ×3 doses, challenge 76 × LD50 (ip)); 31.9 mg/kg in the assay with P. aeruginosa (Test B, P. aeruginosa 24J, ×3 doses, challenge 7.6 × LD50 (ip)); 57.5 mg/kg in the assay on P. aeruginosa (Test C, P. aeruginosa 24J, ×3 doses, challenge 21.5 × LD50 (ip)).
As for `NC[C@H]1O[C@H](O[C@H]2[C@H](O)[C@@H](O[C@H]3O[C@H](CO)[C@@H](O)[C@H](N)[C@H]3O)[C@H](N)C[C@@H]2N)[C@H](N)C[C@@H]1O` [Tobramycin], the ED50 with P. aeruginosa (Test A, P. aeruginosa X239, SC, ×2 doses, challenge 76 × LD50 (ip)) came to 0.4 mg/kg; in the assay with P. aeruginosa (Test B, P. aeruginosa 24J, ×2 doses, challenge 7.6 × LD50 (ip)) it was 0.4 mg/kg; with P. aeruginosa (Test C, P. aeruginosa 24J, ×2 doses, challenge 21.5 × LD50 (ip)), 0.6 mg/kg.
